# Publication PMC10819771 (Pharmaceuticals, 2023)
# Read-outs that look alike come from different tables or passages of the source.
# Assays:
# Fc-MYCT = experiment: FRET-melting, Fc-MYCT; assay type: binding; conditions: ligand 2 μM, DNA 0.2 μM, K+ conditions, pH 7.2
# Experimental: (§1) FRET-melting experiments were conducted on a Stratagene MX3005P (Thermo Fisher Scientific, Illkirch-Graffenstaden, France) real-time PCR equipment in 96-well plates on the DNA sequences reported in Table 4. Experiments were performed in 10 mM lithium cacodylate buffer (pH 7.2) and either 10 mM KCl and 90 mM LiCl (FK-RAST, FBCL-2T, F21T, and FdxT) or 1 mM KCl and 99 mM LiCl (Fc-MYCT) concentrations, depending on the Tm of the G4s alone. The DNA concentration was 0.2 µM. […] Data are presented as an average of three independent measurements, each conducted in duplicate conditions (λexc = 492 nm, λem = 516 nm, T interval = 25–95 °C, ramp: 25 °C for 5 min, then 1 °C/min, measurements every 1 °C, 8× magnification of the fluorescence signal).
# HeLa = experiment: MTT antiproliferative assay, HeLa; assay type: cell-based, human; conditions: Homo sapiens, HeLa; MTT, 72 h, cervical cancer cells; read-out: IC50 Values (μM) ± SEM HeLa
# Experimental: (§2) The growth-inhibitory effects of the compounds were determined by MTT (3-(4,5-dimethylthiazol-2-yl)-2,5-diphenyltetrazolium bromide) assay on selected cell lines, including HeLa and SiHa (cervical cancers), MDA-MB-231 and MCF-7 (breast cancers), and A2780 ovarian cancer cells. All cell lines were purchased from the European Collection of Cell Cultures (Salisbury, UK) except SiHa, which was obtained from the American Tissue Culture Collection (Manassas, VA, USA). The cells were kept in minimum essential medium supplemented with 10% fetal bovine serum, 1% non-essential amino acids, and 1% penicillin-streptomycin-amphotericin-B at 37 °C in a humidified atmosphere containing 5% CO2. Media and supplements were obtained from Lonza Group Ltd., (Basel, Switzerland). Cancer cells were seeded onto 96-well plates (5000 cells/well), after an overnight incubation the test compounds were added in six concentrations (0.1, 0.3, 1.0, 3.0, 10.0, 30.0 µM) and incubated for 72 h under cell-culture condition. After the incubation, 20 μL of 5 mg/mL MTT solution was added to each well and incubated for a further 4 h. The medium was removed, and the precipitated formazan crystals were dissolved in DMSO for 30 min under shaking at 37 °C. The absorbance was measured at 545 nm with a microplate reader. Untreated cells were included as controls. Calculations were performed by means of the GraphPad Prism 5.01 software (GraphPad Software Inc., San Diego, CA, USA). At least two independent determinations were performed with 5 parallel wells for each condition.
# K562 = experiment: MTS cell proliferation assay, K562; assay type: cell-based, human; conditions: Homo sapiens, K562, 72 h; MTS, 3-day incubation, leukemia cells; read-out: IC50 Values (μM) ± SEM K562
# Experimental: The human leukemic cell line K562 was grown in RPMI 1640 medium (Life Technology-Invitrogen by Thermo Fisher Scientific, Saint-Aubin, France) supplemented with 10% fetal calf serum (FCS), antibiotics (100 U/mL penicillin, 100 µg/mL streptomycin), and L-glutamine, (Eurobio, Les Ulis, France) at 37 °C, 5% CO2 in air. The MTS cell proliferation assay (Promega, Charbonnières-les-Bains, France) is a colorimetric assay system, which measures the transformation of a tetrazolium component (MTS) into formazan produced by the mitochondria of viable cells. Cells were washed twice in PBS (Phosphate Buffer Saline) and plated in quadruplicate into microtiter-plate wells in 100 μL culture media with or without our various compounds at increasing concentrations (0, 1, 5, 10, 20, and 50 μM) for 1, 2, and 3 days. After 3 h of incubation at 37 °C with 20 μL MTS/well, the plates were read using an ELISA microplate reader (Thermo, Electrocorporation, Waltham, MA, USA) at 490 nm. The amount of color produced was directly proportional to the number of viable cells. The results are expressed as the concentrations inhibiting cell growth by 50% after a 3-day incubation period. The 50% cytotoxic concentrations (CC50) were determined by linear regression analysis, expressed in μM ± SD (Microsoft Excel).
# [1] = test system: Fc-MYCT (DNA, G4) GGGTGGGTAGGGTGGGTAA; experiment: FRET melting; conditions: 1 mM K+, 99 mM Li+ (table footnote says 10 mM KCl, 90 mM LiCl); 10 mM lithium cacodylate pH 7.2; 0.2 µM DNA, 2 µM compound
# MCF-7 = experiment: MTT antiproliferative assay, MCF-7; assay type: cell-based, human; conditions: MTT, 72 h, breast cancer cells, read-out: IC50 Values (μM) ± SEM MCF-7
# Experimental: as §2
# MDA-MB-231 = experiment: MTT antiproliferative assay, MDA-MB-231; assay type: cell-based, human; conditions: MTT, 72 h, breast cancer cells, read-out: IC50 Values (μM) ± SEM MDA-MB-231
# Experimental: as §2
# FBCL-2T = experiment: FRET-melting, FBCL-2T; assay type: binding; conditions: ligand 2 μM, DNA 0.2 μM, 10 mM KCl, 90 mM LiCl, pH 7.2
# Experimental: as §1
# SiHa = experiment: MTT antiproliferative assay, SiHa; assay type: cell-based, human; conditions: Homo sapiens, SiHa; MTT, 72 h, cervical cancer cells; read-out: IC50 Values (μM) ± SEM SiHa
# Experimental: as §2
# FdxT = experiment: FRET-melting, duplex control FdxT; assay type: binding; conditions: ligand 2 μM, DNA 0.2 μM, 10 mM KCl, 90 mM LiCl, pH 7.2, hairpin duplex
# Experimental: as §1
# [2] = test system: human telomeric sequence F21T; experiment: FRET-melting, F21T; assay type: binding; conditions: ligand 2 μM, DNA 0.2 μM, 10 mM KCl, 90 mM LiCl, pH 7.2
# Experimental: as §1
# A2780 = experiment: MTT antiproliferative assay, A2780; assay type: cell-based, human; conditions: Homo sapiens, A2780; MTT, 72 h, ovarian cancer cells; read-out: IC50 Values (μM) ± SEM A2780
# Experimental: as §2
# FK-RAST = experiment: FRET-melting, FK-RAST; assay type: binding; conditions: ligand 2 μM, DNA 0.2 μM, 10 mM KCl, 90 mM LiCl, pH 7.2
# Experimental: as §1
# [3] = test system: F21T (DNA, G4) GGGTTAGGGTTAGGGTTAGGG; experiment: FRET melting; conditions: 10 mM K+, 90 mM Li+; 10 mM lithium cacodylate pH 7.2; 0.2 µM DNA, 2 µM compound
# [4] = test system: FK-RAST (DNA, G4) AGGGCGGTGTGGGAAGAGGGA; experiment: FRET melting; conditions: 10 mM K+, 90 mM Li+; 10 mM lithium cacodylate pH 7.2; 0.2 µM DNA, 2 µM compound
compound,measurement,setting,value
"CN(C)CCCNCc1ccc(-c2cc(-c3ccc(CNCCCN(C)C)cc3)c3cccc(-c4ccccc4)c3n2)cc1 [Compound 13e, 2,4-bis{4-[(3-dimethylaminopropyl)aminomethyl]phenyl}-8-phenylquinoline]",ΔT1/2 (°C) Fc-MYCT,Fc-MYCT,5.5 ± 0.9 °C
same,IC50,HeLa,1.28 ± 0.21 µM
same,IC50,K562,7 ± 0.1 µM
same,ΔT1/2,[1],5.5 ± 0.9 °C
same,IC50,"MCF-7; Homo sapiens, MCF7, 72 h",1.12 ± 0.1 µM
same,IC50,"MDA-MB-231; Homo sapiens, MDA-MB-231, 72 h",1.21 ± 0.03 µM
same,ΔT1/2 (°C) FBCL-2T,FBCL-2T,8.3 ± 0.1 °C
same,IC50,SiHa,1.07 ± 0.45 µM
same,ΔT1/2 (°C) FdxT,FdxT,0.2 ± 0.1 °C
same,ΔT1/2 (°C) F21T,[2],15.9 ± 0.4 °C
same,IC50,A2780,1.5 ± 0.34 µM
same,ΔT1/2 (°C) FK-RAST,FK-RAST,11.6 ± 1.4 °C
"CN(C)CCCNCc1ccc(-c2nc(-c3ccc(CNCCCN(C)C)cc3)c3c(-c4ccccc4)cccc3n2)cc1 [Compound 12a, 2,4-bis{4-[(3-dimethylaminopropyl)aminomethyl]phenyl}-5-phenylquinazoline]",ΔT1/2 (°C) Fc-MYCT,Fc-MYCT,9.3 ± 0.3 °C
same,IC50,HeLa,1.36 ± 0.04 µM
same,IC50,K562,14 ± 0.2 µM
same,ΔT1/2,[3],6.8 ± 0.8 °C
same,IC50,"MCF-7; Homo sapiens, MCF7, 72 h",1.12 to 1.24 µM
same,IC50,MCF-7,1.12 ± 0.13 µM
same,IC50,"MDA-MB-231; Homo sapiens, MDA-MB-231, 72 h",1.45 µM
same,IC50,MDA-MB-231,1.45 ± 0.14 µM
same,ΔT1/2 (°C) FBCL-2T,FBCL-2T,7.4 ± 0.9 °C
same,IC50,SiHa,0.62 ± 0.12 µM
same,ΔT1/2,[4],10.6 ± 0.6 °C
same,ΔT1/2 (°C) FdxT,FdxT,0.9 ± 0.2 °C
same,ΔT1/2 (°C) F21T,[2],6.8 ± 0.8 °C
same,IC50,A2780,2.6 ± 0.03 µM
same,ΔT1/2 (°C) FK-RAST,FK-RAST,10.6 ± 0.6 °C
